Reference: patent US8241863B2, “Identification of an evolutionarily conserved pathway mediating transrepression of inflammatory response genes by nuclear receptors” (The Regents of the University of California, priority 2005, dated 2012)

System: PPARγ-sensitive genes
Assay: Microarray of primary macrophages transfected with control or NCoR siRNA
Format: cell-based
Settings: NCoR siRNA vs control siRNA
Description: To determine how widely the SUMOylation/NCoR-dependent pathway is utilized by PPARγ to repress inflammatory response genes, microarray studies were performed in primary macrophages transfected with control siRNAs or siRNAs directed against NCoR mRNA.

CN(CCOc1ccc(CC2SC(=O)NC2=O)cc1)c1ccccn1 (stereo not shown) [rosiglitazone]
PPARγ-sensitive genes whose repression by ligand was abolished by knockdown of NCoR: 80%
